Assay results published in ChEMBL document CHEMBL1138823, “Diaminopyrimidine and diaminopyridine 5-HT7 ligands” (Bioorg Med Chem Lett, 2004).

Key:
[1] = target: 5-hydroxytryptamine receptor 7 (Homo sapiens, UniProt P34969); experiment: Binding affinity against 5-Hydroxy tryptamine 7 receptor
D(2) dopamine receptor = D(2) dopamine receptor (Homo sapiens, UniProt P14416); experiment: Binding affinity against D2L receptor
[2] = target: 5-hydroxytryptamine receptor 2C (Rattus norvegicus) (UniProt P08909); experiment: Binding affinity against 5-Hydroxy tryptamine 2C receptor
[3] = target: Adrenergic receptor alpha-1 (Rattus norvegicus); experiment: Binding affinity against Alpha1 adrenergic receptor

Sequence of D(2) dopamine receptor (P14416 whole entry): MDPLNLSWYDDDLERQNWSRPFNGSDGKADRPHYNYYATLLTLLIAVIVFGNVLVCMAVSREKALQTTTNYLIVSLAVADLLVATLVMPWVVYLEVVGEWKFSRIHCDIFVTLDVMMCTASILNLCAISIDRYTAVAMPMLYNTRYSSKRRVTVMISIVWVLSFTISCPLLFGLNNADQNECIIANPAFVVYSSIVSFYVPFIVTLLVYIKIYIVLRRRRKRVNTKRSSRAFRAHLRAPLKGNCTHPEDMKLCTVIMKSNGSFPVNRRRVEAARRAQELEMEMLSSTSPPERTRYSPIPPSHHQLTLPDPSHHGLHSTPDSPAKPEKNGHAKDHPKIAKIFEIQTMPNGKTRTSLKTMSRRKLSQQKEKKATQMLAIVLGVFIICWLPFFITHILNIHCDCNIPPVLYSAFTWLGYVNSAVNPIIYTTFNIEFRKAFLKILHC
Sequence of 5-hydroxytryptamine receptor 7 (P34969 whole entry): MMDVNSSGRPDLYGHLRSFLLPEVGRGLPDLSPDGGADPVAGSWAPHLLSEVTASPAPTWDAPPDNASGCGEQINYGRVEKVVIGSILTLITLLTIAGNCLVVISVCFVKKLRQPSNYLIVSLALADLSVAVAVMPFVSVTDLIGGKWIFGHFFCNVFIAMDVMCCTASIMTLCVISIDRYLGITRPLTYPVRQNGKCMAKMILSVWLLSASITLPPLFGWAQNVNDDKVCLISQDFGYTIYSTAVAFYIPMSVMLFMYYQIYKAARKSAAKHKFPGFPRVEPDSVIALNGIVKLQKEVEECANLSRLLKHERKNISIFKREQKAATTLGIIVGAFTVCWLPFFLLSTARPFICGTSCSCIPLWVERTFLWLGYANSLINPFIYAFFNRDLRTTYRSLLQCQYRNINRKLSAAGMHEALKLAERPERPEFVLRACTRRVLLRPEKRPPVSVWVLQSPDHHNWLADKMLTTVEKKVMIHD
Sequence of 5-hydroxytryptamine receptor 2C (Rattus norvegicus) (P08909 whole entry, looked up): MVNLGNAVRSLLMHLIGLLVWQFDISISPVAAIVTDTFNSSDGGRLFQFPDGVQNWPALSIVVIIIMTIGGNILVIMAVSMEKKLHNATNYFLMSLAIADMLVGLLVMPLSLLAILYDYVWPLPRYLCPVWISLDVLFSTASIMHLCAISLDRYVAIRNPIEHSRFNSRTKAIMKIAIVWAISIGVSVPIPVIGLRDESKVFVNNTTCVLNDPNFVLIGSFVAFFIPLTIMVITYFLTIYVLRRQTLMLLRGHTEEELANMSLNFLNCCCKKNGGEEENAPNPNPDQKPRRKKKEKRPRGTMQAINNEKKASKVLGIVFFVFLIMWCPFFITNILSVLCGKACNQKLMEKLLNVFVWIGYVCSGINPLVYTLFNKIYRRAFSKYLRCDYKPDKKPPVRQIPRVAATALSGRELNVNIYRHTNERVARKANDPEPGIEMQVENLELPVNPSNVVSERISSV

Row | Compound | Ki [1] [nM] | Ki (D(2) dopamine receptor) [nM] | Ki [2] [nM] | Ki [3] [nM]
1 | C[C@H](Nc1cc(NCCc2ccccc2)ccn1)c1ccccc1 | 3 | – | – | –
2 | C[C@H](Nc1ccnc(NCCOc2ccc(F)cc2)n1)c1ccccc1 | 0.3 | > 1000 | – | –
3 | C[C@H](Nc1ccnc(NCCc2ccc(F)cc2)c1)c1ccccc1 | 0.4 | – | – | –
4 | C[C@H](Nc1cncc(NCCOc2ccccc2)c1)c1ccccc1 | 4 | – | – | –
5 | C[C@H](Nc1ccnc(NCCOc2ccccc2)n1)c1ccccc1 | 2 | – | – | –
6 | C[C@H](Nc1ccnc(NCCOc2ccc(F)cc2)c1)c1ccccc1 | 0.2 | 370 | 15 | –
7 | C[C@H](Nc1cncc(NCCc2ccccc2)c1)c1ccccc1 | 13 | – | – | –
8 | C[C@H](Nc1cc(NCCOc2ccc(F)cc2)ncn1)c1ccccc1 | 5 | – | – | –
9 | C[C@H](Nc1cccc(NCCc2ccccc2)c1)c1ccccc1 | > 1000 | – | – | –
10 | C[C@H](Nc1cc(NCCc2ccccc2)ncn1)c1ccccc1 | 33 | – | – | –
11 | CC(Nc1nccc(NCCOc2ccc(F)cc2)n1)c1ccccc1 (racemic) | 1 | > 1000 | 40 | 57
12 | C[C@H](Nc1cccc(NCCc2ccccc2)n1)c1ccccc1 | > 1000 | – | – | –
13 | C[C@H](Nc1cncc(NCCOc2ccc(F)cc2)c1)c1ccccc1 | 4 | > 1000 | 476 | –
14 | C[C@H](Nc1ccnc(NCCc2ccccc2)n1)c1ccccc1 | 0.6 | – | – | –
15 | C[C@H](Nc1ccnc(NCCc2ccccc2)c1)c1ccccc1 | 0.3 | – | – | –
16 | CC(Nc1ccnc(NCCc2ccc(F)cc2)n1)c1ccccc1 (racemic) | 6 | – | – | –

Second part, the compound after the results:

Row | Ki [1] [nM] | Ki (D(2) dopamine receptor) [nM] | Ki [2] [nM] | Ki [3] [nM] | Compound
17 | 16 | – | – | – | C[C@H](Nc1cncc(NCCc2ccc(F)cc2)c1)c1ccccc1
18 | > 1000 | – | – | – | C[C@H](Nc1cccc(NCCOc2ccccc2)c1)c1ccccc1
19 | > 1000 | – | – | – | C[C@H](Nc1cccc(NCCOc2ccccc2)n1)c1ccccc1
20 | 0.4 | – | – | – | C[C@H](Nc1ccnc(NCCOc2ccccc2)c1)c1ccccc1
21 | 0.4 | – | – | – | C[C@H](Nc1cc(NCCOc2ccccc2)ccn1)c1ccccc1
22 | 6 | – | – | – | CC(Nc1nccc(NCCc2ccccc2)n1)c1ccccc1 (racemic)
23 | 0.4 | > 1000 | 13 | – | C[C@H](Nc1cc(NCCOc2ccc(F)cc2)ccn1)c1ccccc1
24 | 5 | – | – | – | C[C@H](Nc1cc(NCCc2ccc(F)cc2)ncn1)c1ccccc1
25 | 4 | – | – | – | C[C@H](Nc1cc(NCCc2ccc(F)cc2)ccn1)c1ccccc1
